Laboratory results published in publication doi:10.1101/2020.06.11.145995v1 (biorxiv, 2020).
Where two headings read alike, the source gives them in different places.

What was measured:
Test in all cases: biochemical
ACVR1B = ACVR1B (Homo sapiens, UniProt P36896)
ADCK4 = ADCK4 (Homo sapiens, UniProt Q96D53)
AKT3 = AKT3 (Homo sapiens, UniProt Q9Y243)
CDK8 = CDK8 (Homo sapiens, UniProt P49336)
CHEK1 = CHEK1 (Homo sapiens, UniProt O14757)
CLK4 = CLK4 (Homo sapiens, UniProt Q9HAZ1)
CSK = CSK (Homo sapiens, UniProt P41240)
CSNK1A1L = CSNK1A1L (Homo sapiens, UniProt Q8N752)
CSNK1G3 = CSNK1G3 (Homo sapiens, UniProt Q9Y6M4)
Sequence of CSNK1G3 (Q9Y6M4 whole entry): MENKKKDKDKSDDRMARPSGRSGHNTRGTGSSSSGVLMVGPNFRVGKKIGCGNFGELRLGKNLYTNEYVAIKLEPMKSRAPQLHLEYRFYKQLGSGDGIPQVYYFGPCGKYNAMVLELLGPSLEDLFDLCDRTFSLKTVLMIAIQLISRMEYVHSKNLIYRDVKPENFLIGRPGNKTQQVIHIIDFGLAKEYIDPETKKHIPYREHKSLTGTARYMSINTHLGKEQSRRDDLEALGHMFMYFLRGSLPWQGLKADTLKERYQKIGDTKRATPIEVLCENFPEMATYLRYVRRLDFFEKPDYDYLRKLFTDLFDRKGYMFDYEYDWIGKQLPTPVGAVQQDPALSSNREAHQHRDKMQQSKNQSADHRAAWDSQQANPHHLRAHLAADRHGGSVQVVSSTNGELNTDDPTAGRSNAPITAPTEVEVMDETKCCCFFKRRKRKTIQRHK

CTK = CTK (Homo sapiens, UniProt P42679)
FAK = FAK (Homo sapiens, UniProt Q05397)
FGFR1 = FGFR1 (Homo sapiens, UniProt P11362)
FGR = FGR (Homo sapiens, UniProt P09769)
Sequence of FGR (P09769 whole entry): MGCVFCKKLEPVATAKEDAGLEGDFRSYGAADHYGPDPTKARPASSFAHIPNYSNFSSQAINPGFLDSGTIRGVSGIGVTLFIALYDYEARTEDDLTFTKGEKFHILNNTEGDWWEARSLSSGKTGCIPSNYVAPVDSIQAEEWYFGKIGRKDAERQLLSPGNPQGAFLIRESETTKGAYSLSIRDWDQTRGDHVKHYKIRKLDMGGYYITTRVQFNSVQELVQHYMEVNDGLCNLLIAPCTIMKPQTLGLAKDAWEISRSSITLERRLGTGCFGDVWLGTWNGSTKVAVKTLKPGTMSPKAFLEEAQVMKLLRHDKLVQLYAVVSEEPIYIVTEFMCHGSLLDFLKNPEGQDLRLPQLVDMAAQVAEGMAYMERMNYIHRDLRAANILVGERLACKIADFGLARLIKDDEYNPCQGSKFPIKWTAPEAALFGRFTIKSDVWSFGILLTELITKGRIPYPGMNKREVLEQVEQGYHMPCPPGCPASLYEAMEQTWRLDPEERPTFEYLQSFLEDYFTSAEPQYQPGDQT

FLT3(D835Y) = FLT3(D835Y) (Homo sapiens, UniProt P36888, D835Y)
FLT3(ITD) = FLT3(ITD) (Homo sapiens, UniProt P36888, ITD)
GRK1 = GRK1 (Homo sapiens, UniProt Q15835)
Sequence of GRK1 (Q15835 whole entry): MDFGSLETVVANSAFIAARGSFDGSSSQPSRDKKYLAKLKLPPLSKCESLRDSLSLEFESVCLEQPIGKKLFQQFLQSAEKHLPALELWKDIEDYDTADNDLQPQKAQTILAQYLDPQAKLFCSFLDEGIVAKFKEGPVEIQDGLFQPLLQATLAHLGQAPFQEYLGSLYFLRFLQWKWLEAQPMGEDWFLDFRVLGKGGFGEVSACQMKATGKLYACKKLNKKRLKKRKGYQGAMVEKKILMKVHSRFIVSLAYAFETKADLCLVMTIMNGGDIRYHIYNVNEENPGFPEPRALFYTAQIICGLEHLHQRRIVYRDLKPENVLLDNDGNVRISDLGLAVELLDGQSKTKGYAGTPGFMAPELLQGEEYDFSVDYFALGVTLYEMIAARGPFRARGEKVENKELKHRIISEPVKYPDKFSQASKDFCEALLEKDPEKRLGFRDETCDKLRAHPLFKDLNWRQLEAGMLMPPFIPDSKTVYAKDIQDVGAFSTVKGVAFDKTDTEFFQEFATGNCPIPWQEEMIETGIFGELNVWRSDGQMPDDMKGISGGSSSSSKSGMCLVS

GSK3B = GSK3B (Homo sapiens, UniProt P49841)
HIPK1 = HIPK1 (Homo sapiens, UniProt Q86Z02)
KIT = KIT (Homo sapiens, UniProt P10721)
Sequence of KIT (P10721 whole entry): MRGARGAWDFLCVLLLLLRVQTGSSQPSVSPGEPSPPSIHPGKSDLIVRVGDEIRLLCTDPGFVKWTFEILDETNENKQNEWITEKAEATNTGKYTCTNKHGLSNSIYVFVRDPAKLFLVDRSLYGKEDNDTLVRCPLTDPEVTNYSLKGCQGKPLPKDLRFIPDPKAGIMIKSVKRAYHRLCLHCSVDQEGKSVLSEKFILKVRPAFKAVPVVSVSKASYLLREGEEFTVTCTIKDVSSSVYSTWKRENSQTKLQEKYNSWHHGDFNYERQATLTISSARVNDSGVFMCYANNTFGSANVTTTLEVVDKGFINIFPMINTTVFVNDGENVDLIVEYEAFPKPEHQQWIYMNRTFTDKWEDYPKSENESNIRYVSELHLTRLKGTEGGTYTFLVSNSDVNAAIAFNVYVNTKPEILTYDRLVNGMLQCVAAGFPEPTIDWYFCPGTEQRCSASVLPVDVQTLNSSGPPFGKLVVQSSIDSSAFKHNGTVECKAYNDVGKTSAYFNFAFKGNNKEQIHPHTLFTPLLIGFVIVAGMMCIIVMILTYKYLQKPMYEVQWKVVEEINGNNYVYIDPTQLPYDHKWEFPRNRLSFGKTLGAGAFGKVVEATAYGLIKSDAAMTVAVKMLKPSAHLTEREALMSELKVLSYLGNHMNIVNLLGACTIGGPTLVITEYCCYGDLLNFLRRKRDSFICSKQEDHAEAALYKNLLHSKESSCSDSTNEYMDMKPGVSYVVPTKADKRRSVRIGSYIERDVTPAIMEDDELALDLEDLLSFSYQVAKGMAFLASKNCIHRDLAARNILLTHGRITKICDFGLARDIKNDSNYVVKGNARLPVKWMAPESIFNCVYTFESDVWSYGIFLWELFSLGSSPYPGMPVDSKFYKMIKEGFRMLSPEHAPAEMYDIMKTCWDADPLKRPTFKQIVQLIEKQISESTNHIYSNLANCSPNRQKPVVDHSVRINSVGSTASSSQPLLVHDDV

LYN = LYN (Homo sapiens, UniProt P07948)
Sequence of LYN (P07948 whole entry): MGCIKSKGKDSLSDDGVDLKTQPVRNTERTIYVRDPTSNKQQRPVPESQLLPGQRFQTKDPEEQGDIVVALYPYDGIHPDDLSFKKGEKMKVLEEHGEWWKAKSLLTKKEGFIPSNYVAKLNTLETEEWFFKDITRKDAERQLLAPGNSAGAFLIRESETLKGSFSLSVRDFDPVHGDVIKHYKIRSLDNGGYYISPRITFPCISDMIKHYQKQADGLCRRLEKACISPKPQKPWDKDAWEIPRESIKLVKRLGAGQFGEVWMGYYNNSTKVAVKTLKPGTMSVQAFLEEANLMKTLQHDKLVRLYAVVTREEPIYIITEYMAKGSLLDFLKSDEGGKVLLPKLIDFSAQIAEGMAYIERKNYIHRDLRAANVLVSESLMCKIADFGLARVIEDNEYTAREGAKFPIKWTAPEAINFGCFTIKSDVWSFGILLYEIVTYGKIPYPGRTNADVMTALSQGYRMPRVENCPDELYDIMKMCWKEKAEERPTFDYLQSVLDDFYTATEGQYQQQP

MAP3K4 = MAP3K4 (Homo sapiens, UniProt Q9Y6R4)
MAP4K3 = MAP4K3 (Homo sapiens, UniProt Q8IVH8)
MAP4K4 = MAP4K4 (Homo sapiens, UniProt O95819)
MARK2 = MARK2 (Homo sapiens, UniProt Q7KZI7)
MET = MET (Homo sapiens, UniProt P08581)
MLK3 = MLK3 (Homo sapiens, UniProt Q16584)
MRCKB = MRCKB (Homo sapiens, UniProt Q9Y5S2)
MYLK4 = MYLK4 (Homo sapiens, UniProt Q86YV6)
MYO3A = MYO3A (Homo sapiens, UniProt Q8NEV4)
NUAK1 = NUAK1 (Homo sapiens, UniProt O60285)
[1] = read-out: CPT-1-70-1 (1uM) % control
[2] = read-out: HYJ-2-002-1 (1uM) % control

Sequence of ACVR1B (P36896 whole entry): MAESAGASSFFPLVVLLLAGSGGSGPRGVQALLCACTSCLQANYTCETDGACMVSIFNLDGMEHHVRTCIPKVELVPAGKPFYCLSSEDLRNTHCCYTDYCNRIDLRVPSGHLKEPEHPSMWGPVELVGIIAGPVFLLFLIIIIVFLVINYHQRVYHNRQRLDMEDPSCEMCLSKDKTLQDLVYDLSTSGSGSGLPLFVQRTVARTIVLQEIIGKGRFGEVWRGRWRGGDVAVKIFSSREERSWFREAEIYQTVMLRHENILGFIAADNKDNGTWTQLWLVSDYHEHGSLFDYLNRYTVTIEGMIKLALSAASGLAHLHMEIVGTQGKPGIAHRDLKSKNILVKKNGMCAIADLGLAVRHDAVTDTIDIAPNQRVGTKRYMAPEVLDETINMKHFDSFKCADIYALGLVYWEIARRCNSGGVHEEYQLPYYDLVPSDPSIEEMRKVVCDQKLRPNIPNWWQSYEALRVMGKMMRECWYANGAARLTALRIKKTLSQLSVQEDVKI
Sequence of CLK4 (Q9HAZ1 whole entry): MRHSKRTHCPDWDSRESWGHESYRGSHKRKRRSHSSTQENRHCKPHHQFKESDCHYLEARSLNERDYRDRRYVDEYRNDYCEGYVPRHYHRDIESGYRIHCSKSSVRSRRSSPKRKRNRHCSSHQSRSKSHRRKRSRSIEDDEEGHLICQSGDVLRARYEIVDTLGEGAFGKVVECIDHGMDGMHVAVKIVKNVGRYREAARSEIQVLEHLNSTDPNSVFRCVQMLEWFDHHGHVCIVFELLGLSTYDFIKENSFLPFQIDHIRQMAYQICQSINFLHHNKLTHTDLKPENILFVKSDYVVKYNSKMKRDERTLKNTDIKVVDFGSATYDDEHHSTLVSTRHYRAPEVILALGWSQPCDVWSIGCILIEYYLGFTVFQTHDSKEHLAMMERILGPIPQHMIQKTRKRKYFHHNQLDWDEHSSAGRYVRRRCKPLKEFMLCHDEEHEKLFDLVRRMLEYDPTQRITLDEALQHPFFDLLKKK
Sequence of CDK8 (P49336 whole entry): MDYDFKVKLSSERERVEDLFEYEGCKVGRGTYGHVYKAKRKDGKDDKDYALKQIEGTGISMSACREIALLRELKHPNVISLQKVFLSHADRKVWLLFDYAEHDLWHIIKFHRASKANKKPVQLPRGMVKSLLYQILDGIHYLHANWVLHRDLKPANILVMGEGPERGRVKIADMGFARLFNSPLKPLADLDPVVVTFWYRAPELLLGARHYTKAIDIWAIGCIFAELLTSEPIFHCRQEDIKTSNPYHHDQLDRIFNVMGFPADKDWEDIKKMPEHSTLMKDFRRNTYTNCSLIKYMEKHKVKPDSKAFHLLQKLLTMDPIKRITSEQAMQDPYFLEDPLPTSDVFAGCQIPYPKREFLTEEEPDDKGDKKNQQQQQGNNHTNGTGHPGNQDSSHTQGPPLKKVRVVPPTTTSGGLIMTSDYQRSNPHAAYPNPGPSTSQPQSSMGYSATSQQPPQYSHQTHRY
Sequence of ADCK4 (Q96D53 whole entry): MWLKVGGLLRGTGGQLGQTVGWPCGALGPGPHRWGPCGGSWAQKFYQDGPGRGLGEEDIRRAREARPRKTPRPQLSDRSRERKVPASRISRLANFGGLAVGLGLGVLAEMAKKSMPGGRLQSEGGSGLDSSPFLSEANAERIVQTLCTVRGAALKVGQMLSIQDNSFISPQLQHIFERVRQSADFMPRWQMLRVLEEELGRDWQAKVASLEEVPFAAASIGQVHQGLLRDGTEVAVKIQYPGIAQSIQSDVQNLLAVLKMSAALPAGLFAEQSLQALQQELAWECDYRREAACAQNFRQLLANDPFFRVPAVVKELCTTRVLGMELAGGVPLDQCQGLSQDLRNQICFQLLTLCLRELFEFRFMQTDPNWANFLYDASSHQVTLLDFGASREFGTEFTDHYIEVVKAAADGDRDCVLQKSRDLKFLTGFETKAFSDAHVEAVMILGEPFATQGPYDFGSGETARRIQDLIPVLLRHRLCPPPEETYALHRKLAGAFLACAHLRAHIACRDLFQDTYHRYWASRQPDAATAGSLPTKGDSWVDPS

SMILES: CN1CCN(c2ccc(Nc3nc(Oc4ccc(NC(=O)CCl)cc4)c4cc[nH]c4n3)cc2)CC1 [CPT1-70-1]
- remaining activity at 1 µM (ACVR1B; [1]): 100%
- remaining activity at 1 µM (ADCK4; [1]): 91%
- remaining activity at 1 µM (AKT3; [1]): 100%
- remaining activity at 1 µM (CDK8; [1]): 100%
- remaining activity at 1 µM (CHEK1; [1]): 92%
- remaining activity at 1 µM (CLK4; [1]): 6.5%
- remaining activity at 1 µM (CSK; [1]): 93%
- remaining activity at 1 µM (CSNK1A1L; [1]): 80%
- remaining activity at 1 µM (CSNK1G3; [1]): 2.6%
- remaining activity at 1 µM (CTK; [1]): 100%
- remaining activity at 1 µM (FAK; [1]): 85%
- remaining activity at 1 µM (FGFR1; [1]): 2.2%
- remaining activity at 1 µM (FGR; [1]): 4.2%
- remaining activity at 1 µM (FLT3(D835Y); [1]): 0.35%
- remaining activity at 1 µM (FLT3(ITD); [1]): 1.6%
- remaining activity at 1 µM (GRK1; [1]): 82%
- remaining activity at 1 µM (GSK3B; [1]): 98%
- remaining activity at 1 µM (HIPK1; [1]): 52%
- remaining activity at 1 µM (KIT; [1]): 20%
- remaining activity at 1 µM (LYN; [1]): 49%
- remaining activity at 1 µM (MAP3K4; [1]): 66%
- remaining activity at 1 µM (MAP4K3; [1]): 23%
- remaining activity at 1 µM (MAP4K4; [1]): 49%
- remaining activity at 1 µM (MARK2; [1]): 10%
- remaining activity at 1 µM (MET; [1]): 28%
- remaining activity at 1 µM (MLK3; [1]): 91%
- remaining activity at 1 µM (MRCKB; [1]): 100%
- remaining activity at 1 µM (MYLK4; [1]): 92%
- remaining activity at 1 µM (MYO3A; [1]): 88%
- remaining activity at 1 µM (NUAK1; [1]): 9.3%

SMILES: CCN1CCN(Cc2ccc(NC(=O)c3ccc(C)c(CCc4cnc5[nH]ccc5c4OC)c3)cc2C(F)(F)F)CC1 [HYJ-2-002-1]
- remaining activity at 1 µM (ACVR1B; [2]): 100%
- remaining activity at 1 µM (ADCK4; [2]): 100%
- remaining activity at 1 µM (AKT3; [2]): 100%
- remaining activity at 1 µM (CDK8; [2]): 9.2%
- remaining activity at 1 µM (CHEK1; [2]): 100%
- remaining activity at 1 µM (CLK4; [2]): 69%
- remaining activity at 1 µM (CSK; [2]): 0.8%
- remaining activity at 1 µM (CSNK1A1L; [2]): 100%
- remaining activity at 1 µM (CSNK1G3; [2]): 65%
- remaining activity at 1 µM (CTK; [2]): 91%
- remaining activity at 1 µM (FAK; [2]): 91%
- remaining activity at 1 µM (FGFR1; [2]): 1.2%
- remaining activity at 1 µM (FGR; [2]): 0.75%
- remaining activity at 1 µM (FLT3(D835Y); [2]): 38%
- remaining activity at 1 µM (FLT3(ITD); [2]): 2.3%
- remaining activity at 1 µM (GRK1; [2]): 100%
- remaining activity at 1 µM (GSK3B; [2]): 88%
- remaining activity at 1 µM (HIPK1; [2]): 51%
- remaining activity at 1 µM (KIT; [2]): 0%
- remaining activity at 1 µM (LYN; [2]): 0.15%
- remaining activity at 1 µM (MAP3K4; [2]): 100%
- remaining activity at 1 µM (MAP4K3; [2]): 40%
- remaining activity at 1 µM (MAP4K4; [2]): 11%
- remaining activity at 1 µM (MARK2; [2]): 64%
- remaining activity at 1 µM (MET; [2]): 59%
- remaining activity at 1 µM (MLK3; [2]): 53%
- remaining activity at 1 µM (MRCKB; [2]): 100%
- remaining activity at 1 µM (MYLK4; [2]): 100%
- remaining activity at 1 µM (MYO3A; [2]): 59%
- remaining activity at 1 µM (NUAK1; [2]): 65%
